Measured values published in patent publication US12385017B2, “Acute respiratory distress syndrome therapeutic agent” (LTT Bio-Pharma Co., Ltd., priority 2015, dated 2025).
Where two headings read alike, the source gives them in different places.

How the values were obtained:
[1] = system: CLP-induced systemic inflammation; assay: CLP-induced systemic inflammation (plasma inflammatory cytokines); type: in vivo, mouse; details: male ICR mice, drug once before CLP, plasma 8 hours after CLP
Procedure: (§1) A mouse was anesthetized with pentobarbital (10 mg/kg, intraperitoneally) and a small abdominal midline incision was made to expose the cecum thereof. Subsequently, the cecum was ligated at approximately 2 cm with a silk thread and punctured twice with an 18 G needle (manufactured by Terumo Corporation). Then, the abdomen was closed.
Sham mice (sham operation group) were subjected to the same operation except the ligation and puncture of the cecum. […]
The levels of BUN and creatinine in blood were measured by using a DRI-CHEM slide and LabAssay creatinine, respectively, according to the protocols. The level of inflammatory cytokines in plasma was measured by an Elisa kit according to the protocol.
A CLP operation or a sham operation was performed on male ICR mice.
Drugs were administered once before the CLP operation or the sham operation. […] Sivelestat (mg/kg) was intraperitoneally administered. EBD (Evans blue dye) (30 mg/kg) was administered intravenously 8 hours after the CLP operation. Plasma samples were prepared and the level of inflammatory cytokines in plasma was measured.
A CLP operation or a sham operation was performed on a male ICR mouse. […] A plasma sample was prepared 8 hours after the CLP investigation and the levels of BUN and creatinine (Test A) and the level of inflammatory cytokines (Test B) were measured.
A CLP operation or a sham operation was performed on a male ICR mouse. NAC (mg/kg) was administered intraperitoneally or unmodified SOD (kU/kg) was administered intravenously, once before the CLP operation. A plasma sample was prepared 8 hours after the CLP operation and the levels of BUN and creatinine (Test A) and the level of inflammatory cytokines (Test B) were measured.

[2] = system: mice subjected to cecal ligation and puncture technique (CLP technique); details: male ICR mice
Procedure: as §1
(§2) Sham mice (sham operation group) were subjected to the same operation except the ligation and puncture of the cecum.

[3] = system: CLP-induced multiple organ failure; assay: CLP-induced multiple organ failure (Evans blue vascular permeability, BUN, creatinine); type: in vivo, mouse; details: male ICR mice, drug once before CLP, plasma 8 hours after CLP
Procedure: as §1, §2
A mouse was anesthetized with isoflurane and 1 mg/kg LPS (in 0.9% NaCl) was administered thereto intratracheally once using a micropipette (P200). […]
For a quantitative examination of the permeability of an organ, Evans blue (EBD) (30 mg/kg) was administered to the mouse intravenously 2 hours before sacrificing the mouse. […] The specimens were centrifuged to obtain supernatants and the quantity of EBD was determined by using absorbance at 620 nm of the specimens.
The levels of BUN and creatinine in blood were measured by using a DRI-CHEM slide and LabAssay creatinine, respectively, according to the protocols. The level of inflammatory cytokines in plasma was measured by an Elisa kit according to the protocol. […]
Drugs were administered once before the CLP operation or the sham operation. […] Two hours later, EBD was extracted from the kidney and liver and measured. […]

[4] = system: lipopolysaccharide (LPS)-induced lung injury
Procedure: A mouse was anesthetized with isoflurane and 1 mg/kg LPS (in 0.9% NaCl) was administered thereto intratracheally once using a micropipette (P200). […] In the case of sivelestat, 10 or 100 mg/kg of sivelestat (in 0.9% NaCl) was administered intraperitoneally using a 21 G needle.
(§3) For a quantitative examination of the permeability of an organ, Evans blue (EBD) (30 mg/kg) was administered to the mouse intravenously 2 hours before sacrificing the mouse. Tissue (lung, liver, and kidney) specimens were cut into pieces and incubated with a […] for 24 hours at 60° C. The specimens were centrifuged to obtain supernatants and the quantity of EBD was determined by using absorbance at 620 nm of the specimens.
BALF was collected by inserting a cannula into a trachea and performing lavage twice with 1 mL of 50 U/mL heparin (in sterile 0.9% NaCl). Usually, about 1.8 mL of BALF was collected from each mouse. The amount of proteins in BALF was determined by a Bradford assay. The level of inflammatory cytokines was determined by the Elisa kit as described above.
A tissue specimen was fixed in 10% neutral buffered formalin for 24 hours and then embedded in paraffin before being cut into a section 4 μm thick. The section was stained firstly with Mayer's hematoxylin and secondly with 1% alcoholic eosin solution (H&E staining). The specimen was mounted with malinol (mounting medium) and scanned using a NanoZoomer-XR digital slide scanner (Hamamatsu Photonics K.K.).
All the scanned images were analyzed using NDP-view2 software (Hamamatsu Photonics K.K.) and Image J software.
LPS (1 mg/kg) or vehicle (control) was administered once into a trachea of a male ICR mouse.
ESD (Evans blue dye) (30 mg/kg) was injected intravenously 6 hours after a CLP operation. Two hours later, ESD was extracted from the lung and liver and the amount thereof was measured (Test A).
A section of the lung tissue was prepared 24 hours after the LPS administration and was subjected to a histopathological examination (H&E staining) (Test B). The lesion area was determined by ImageJ software (Test C). BALF was prepared 48 hours after the LPS administration and the levels of protein (Test D) and inflammatory cytokines (Test E) were determined.

[5] = system: mechanical ventilator (MV)-induced lung injury; assay: Mechanical ventilator (MV)-induced lung injury and change of lung mechanics; type: in vivo, mouse; details: male ICR mice
Procedure: A mechanical ventilator for small animals was used to induce ventilator-induced lung injury (VILI). After a mouse was anesthetized with pentobarbital (10 mg/kg, intraperitoneally), tracheotomy was performed and an 8 mm metal tube was inserted into the trachea thereof. The mouse was mechanically ventilated with a tidal volume of 17.5 mL/kg, a positive end-expiratory pressure of 0 cm H2O, and a rate of 150 breaths/min.
Total respiratory elastance was measured every 30 minutes for 120 minutes by a snapshot technique.
The data were analyzed by using FlexiVent software (version 5.3 SCIREQ).
as §3
Firstly, the wet weight of a lung was measured to determine a wet-to-dry weight ratio of the lung. Then, the lung was dried at 60° C. overnight and reweighed to obtain the dry weight thereof.
A tissue specimen was fixed in 10% neutral buffered formalin for 24 hours and then embedded in paraffin before being cut into a section 4 μm thick. […]
All the scanned images were analyzed using NDP-view2 software (Hamamatsu Photonics K.K.) and Image J software. […]
EBD (Evans blue dye) (30 mg/kg) was simultaneously administered intravenously, extracted from the lung 2 hours after the MV treatment, and measured (Test A).
The wet-to-dry weight ratio of the lung was determined 2 hours after the MV treatment (Test B). […]
The lesion area was determined by ImageJ software (Test D).
Total respiratory elastance was measured every 30 minutes for 120 minutes (Test E). […]
The wet-to-dry weight ratio of the lung was determined 2 hours after the MV treatment (Tests A and C). Total respiratory elastance was measured every 30 minutes for 120 minutes (Tests B and D).

[6] = system: reactive oxygen species (ROS); assay: In vivo imaging of reactive oxygen species (ROS), CLP model; set-up: species or system mouse; details: drug once before CLP, L-012 75 mg/kg 4 hours after the CLP operation
Procedure: In the case of the CLP model, the mouse was euthanized 2 minutes after injection of L-012, subjected to abdominal midline incision, and imaged (five-minute intervals).
Male ICR mice were subjected to a CLP operation. Dexamethasone (200 μg/mouse) was administered intravenously once before the CLP operation (Tests A and C). Sivelestat (100 mg/kg) was administered intraperitoneally (Tests B and D). […] The sum intensity of ROS was determined by SlideBook6 software (Tests C and D).

[7] = system: reactive oxygen species (ROS)
Procedure: Measurement of reactive oxygen species (ROS) in a mouse was performed by in vivo imaging analysis with some modifications.
An imaging system (Lumazone, in vivo imaging system, SHOSHIN EM, Okazaki, Japan) including a chamber equipped with an electron multiplying CCD camera was used. L-012 (in saline), which is a luminescent probe, was administered to the mouse intravenously at 75 mg/kg.
In the case of the LPS and MV models, the mouse was euthanized 5 minutes after injection of L-012, and the lung thereof was anatomized promptly and imaged (five-minute intervals).
The data were analyzed by using SlideBook6 software (Intelligent Imaging Innovations, Inc., Denver, CO).
CLP operation (Tests A and B), LPS administration (Tests C and D), and MV treatment (Tests E and F) were performed as described above. […] A luminescent probe (L-012) (75 mg/kg) was administered 4 hours after the CLP operation, 6 hours after the LPS administration, and 2 hours after the MV treatment. An abdominal cavity (Test A) or a lung (Tests C and E) of the mouse was imaged using a Lumazone in vivo imaging system. The sum intensity of reactive oxygen species (ROS) was determined by Slide Book6 software (Tests B, D, and F).

[8] = BALF 48 hours after the LPS administration (FIG. 4E)

| Compound | IL-6 level in plasma [1] | TNF-α level in plasma [1] | survival rate ([2]; administration 1, 12, 24, and 48 hours after the CLP operation (FIG. 1B)) | survival rate ([2]; administration immediately before the CLP operation and 12, 24, and 48 hours after (FIG. 1A)) | BUN (blood urea nitrogen) level [3] | creatinine level [3] | protein in BALF ([4]; BALF 48 hours after the LPS administration (FIG. 4D)) | IL-6 in BALF [4, 8] | IL-10 in BALF [4, 8] | TNF-α in BALF [4, 8] | histopathological examination of lung tissue (H&E staining) ([4]; lung section 24 hours after the LPS administration (FIG. 4B)) | lesion area of lung (ImageJ) ([4]; lung section 24 hours after the LPS administration (FIG. 4C)) | lung edema (wet-to-dry weight ratio of the lung) ([5]; drug once immediately before MV, 2 hours after the MV treatment) | lung injury (histopathological examination, H&E staining; lesion area) ([5]; lung section 2 hours after the MV treatment (FIG. 5C, D)) | lung elastance (total respiratory elastance) ([5]; measured every 30 minutes for 120 minutes) | reactive oxygen species in the abdominal cavity (sum intensity, L-012) [6] | reactive oxygen species in the lung (sum intensity, L-012) ([7]; LPS, PC-SOD i.v. once before LPS, L-012 6 hours after the LPS administration) | reactive oxygen species in the lung (sum intensity, L-012) ([7]; MV, PC-SOD i.v. once before MV, L-012 2 hours after the MV treatment) |
| --- | --- | --- | --- | --- | --- | --- | --- | --- | --- | --- | --- | --- | --- | --- | --- | --- | --- | --- |
| CC(C)(C)C(=O)Oc1ccc(S(=O)(=O)Nc2ccccc2C(=O)NCC(=O)O)cc1 [sivelestat, sivelestat sodium hydrate, reference compound] | failed in suppressing an increase | failed in suppressing an increase | – | – | – | – | – | – | – | – | – | – | – | – | – | – | – | – |
| lecithinized superoxide dismutase [PC-SOD] | suppressed an increase | suppressed an increase | increased the survival rate | increased the survival rate in a dose-dependent manner | suppressed an increase | suppressed an increase | suppressed an increase of protein | suppressed an increase | suppressed an increase | suppressed an increase | suppressed alveolar hemorrhage, leukocyte infiltration, and lung interstitial edema | reduced a lung disorder area | suppressed lung edema | suppressed lung injury | suppressed an increase in lung elastance | suppressed an increase of reactive oxygen species | suppressed an increase of reactive oxygen species | suppressed an increase of reactive oxygen species |
